The source of these data is US20100311729A1, “Substituted imidazopyridazines and pyrrolopyrimidines as lipid kinase inhibitors” (priority 2007, published 2010).

What all share (format): biochemical
One experiment deals with T1, PI3K alfa (Homo sapiens, UniProt P42336).
T1 construct: for the p110-a subunit (with a deletion of the first 20 amino acids); His tag (C); made in house; host or cells: baculovirus; Tn5 (Trichoplusia ni) or TiniPro insect cells
As to the kind of experiment: PI3 kinase assay (Kinase-Glo luminescence), PI3K alfa. To be noted: Enzymatic Data; read-out: PI3K alfa IC50 [umol]. Summed up:
(§1)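 Recombinant PI3K constructs (alfa 10 nM, delta 10 nM, gamma 150 nM) with 1 μM ATP and 10 μg/mL phosphatidylinositol in Tris pH 7.5, MgCl2, NaCl, CHAPS, DTT; 60 min (alfa, delta) or 120 min (gamma) at room temperature. ATP depletion read by Kinase-Glo luminescence; IC50 from 4-parameter logistic fit over 8 concentrations.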

The next experiment deals with T2, PI3K beta (Homo sapiens, UniProt P42338).
T2 construct: for the full-length p110-b subunit are generated and fused by overlapping PCR; His tag (C); made in house; host or cells: baculovirus; Tn5 (Trichoplusia ni) or TiniPro insect cells
As to the kind of experiment: PI3 kinase assay (Kinase-Glo luminescence), PI3K beta. To be noted: Enzymatic Data; read-out: PI3K beta IC50 [umol]. In a few lines:
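PI3Kβ (25 nM, BV-949) with 10 μg/mL phosphatidylinositol in Tris pH 7.5/MgCl2/NaCl/CHAPS/DTT buffer; reaction started with 1 μM ATP, 60 min at room temperature. ATP depletion read by Kinase-Glo luminescence; 8-point dilutions, IC50 by four-parameter logistic fit.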

Another experiment deals with T3, PI3K delta (Homo sapiens, UniProt O00329).
T3 construct: for the full-length p110-d subunit are generated and fused by overlapping PCR; His tag (C); made in house; host or cells: baculovirus; Tn5 (Trichoplusia ni) or TiniPro insect cells
The experiment in a line: PI3 kinase assay (Kinase-Glo luminescence), PI3K delta. To be noted: Enzymatic Data; read-out: PI3K delta IC50 [umol]. Summed up:
as §1

A further experiment addresses T4, PI3K gamma (Homo sapiens, UniProt P48736).
T4 construct: PI3Kγ BV-950 p110g(D144aa)-C-Term His Tag; His tag (C); made in house; host or cells: construct from the Roger Williams lab (MRC LMB) in pVL1393; baculovirus; Tn5 (Trichoplusia ni) or TiniPro insect cells
As to the kind of experiment: PI3 kinase assay (Kinase-Glo luminescence), PI3K gamma. To be noted: Enzymatic Data; read-out: PI3K gamma IC50 [umol]. Summed up:
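Percent inhibition at eight concentrations (typically 10 to 0.003 […]) fitted to a four-parameter logistic model to give IC50. Reaction initiated with ATP; final ATP 1 μM and phosphatidylinositol 10 μg/mL; ATP consumption read by Kinase-Glo luminescence.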

A value given as a limit tells only on which side of the number the result lay.

T2 sequence (P42338 with tags, fused parts or gaps limits assumed): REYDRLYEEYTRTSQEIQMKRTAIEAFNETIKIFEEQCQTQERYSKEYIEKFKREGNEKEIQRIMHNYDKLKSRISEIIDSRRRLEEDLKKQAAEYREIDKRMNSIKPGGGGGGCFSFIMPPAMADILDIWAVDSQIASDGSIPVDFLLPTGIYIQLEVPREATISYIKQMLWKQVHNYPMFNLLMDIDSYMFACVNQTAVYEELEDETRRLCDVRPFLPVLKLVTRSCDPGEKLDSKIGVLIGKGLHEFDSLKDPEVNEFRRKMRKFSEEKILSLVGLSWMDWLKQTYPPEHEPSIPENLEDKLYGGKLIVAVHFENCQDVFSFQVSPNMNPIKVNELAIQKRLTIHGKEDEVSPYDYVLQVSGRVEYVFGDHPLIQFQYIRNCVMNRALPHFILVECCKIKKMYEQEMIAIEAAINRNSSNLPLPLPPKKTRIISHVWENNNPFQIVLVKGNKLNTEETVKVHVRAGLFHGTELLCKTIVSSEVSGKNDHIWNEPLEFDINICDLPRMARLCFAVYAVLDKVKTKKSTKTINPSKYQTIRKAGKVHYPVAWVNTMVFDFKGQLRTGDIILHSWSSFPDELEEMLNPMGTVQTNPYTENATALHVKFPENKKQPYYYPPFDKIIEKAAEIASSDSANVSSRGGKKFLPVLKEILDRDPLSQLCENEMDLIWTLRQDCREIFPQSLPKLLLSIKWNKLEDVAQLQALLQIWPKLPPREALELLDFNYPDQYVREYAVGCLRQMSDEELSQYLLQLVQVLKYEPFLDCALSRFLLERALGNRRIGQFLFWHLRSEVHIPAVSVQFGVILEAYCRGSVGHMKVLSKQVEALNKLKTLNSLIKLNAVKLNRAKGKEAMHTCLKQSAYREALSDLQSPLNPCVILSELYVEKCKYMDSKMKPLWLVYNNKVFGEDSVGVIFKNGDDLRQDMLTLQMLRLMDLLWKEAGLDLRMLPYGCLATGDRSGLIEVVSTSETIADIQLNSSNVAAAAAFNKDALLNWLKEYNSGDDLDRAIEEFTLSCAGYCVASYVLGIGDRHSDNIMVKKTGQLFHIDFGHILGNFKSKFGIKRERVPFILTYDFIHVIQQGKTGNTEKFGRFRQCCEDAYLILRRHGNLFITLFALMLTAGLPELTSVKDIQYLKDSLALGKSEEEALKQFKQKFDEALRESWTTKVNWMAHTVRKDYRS
T1 sequence (P42336 with tags, fused parts or gaps limits assumed): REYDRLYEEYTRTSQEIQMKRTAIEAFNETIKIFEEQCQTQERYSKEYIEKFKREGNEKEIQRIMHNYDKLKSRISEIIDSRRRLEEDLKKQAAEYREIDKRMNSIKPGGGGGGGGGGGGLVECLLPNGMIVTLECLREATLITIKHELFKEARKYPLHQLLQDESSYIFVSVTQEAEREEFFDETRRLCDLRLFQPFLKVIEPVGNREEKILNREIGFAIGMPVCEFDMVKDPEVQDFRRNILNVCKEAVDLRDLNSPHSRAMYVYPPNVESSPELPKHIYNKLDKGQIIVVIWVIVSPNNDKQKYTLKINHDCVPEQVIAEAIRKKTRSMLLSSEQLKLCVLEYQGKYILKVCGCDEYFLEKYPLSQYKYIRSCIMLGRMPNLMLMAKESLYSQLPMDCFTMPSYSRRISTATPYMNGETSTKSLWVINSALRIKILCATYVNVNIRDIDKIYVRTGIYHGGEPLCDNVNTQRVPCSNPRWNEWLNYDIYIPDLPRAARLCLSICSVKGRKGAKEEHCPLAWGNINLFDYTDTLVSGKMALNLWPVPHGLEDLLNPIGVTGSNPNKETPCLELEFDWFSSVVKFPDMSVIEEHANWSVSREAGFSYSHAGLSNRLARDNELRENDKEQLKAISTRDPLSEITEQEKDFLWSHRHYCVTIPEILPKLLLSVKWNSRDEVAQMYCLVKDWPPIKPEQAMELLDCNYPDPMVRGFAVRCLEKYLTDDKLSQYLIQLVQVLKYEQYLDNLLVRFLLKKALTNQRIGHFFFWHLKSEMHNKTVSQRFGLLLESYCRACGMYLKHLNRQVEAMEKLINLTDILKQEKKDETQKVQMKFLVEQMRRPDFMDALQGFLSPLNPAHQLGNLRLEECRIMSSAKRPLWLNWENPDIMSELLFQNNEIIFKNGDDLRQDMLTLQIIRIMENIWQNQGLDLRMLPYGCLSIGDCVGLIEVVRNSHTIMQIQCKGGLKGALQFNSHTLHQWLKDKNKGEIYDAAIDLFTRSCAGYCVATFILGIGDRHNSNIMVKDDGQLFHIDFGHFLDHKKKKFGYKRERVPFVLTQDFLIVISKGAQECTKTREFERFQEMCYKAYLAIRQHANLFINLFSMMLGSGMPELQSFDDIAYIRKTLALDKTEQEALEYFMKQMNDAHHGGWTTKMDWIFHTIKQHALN
T4 sequence (P48736 144-1102 limits assumed): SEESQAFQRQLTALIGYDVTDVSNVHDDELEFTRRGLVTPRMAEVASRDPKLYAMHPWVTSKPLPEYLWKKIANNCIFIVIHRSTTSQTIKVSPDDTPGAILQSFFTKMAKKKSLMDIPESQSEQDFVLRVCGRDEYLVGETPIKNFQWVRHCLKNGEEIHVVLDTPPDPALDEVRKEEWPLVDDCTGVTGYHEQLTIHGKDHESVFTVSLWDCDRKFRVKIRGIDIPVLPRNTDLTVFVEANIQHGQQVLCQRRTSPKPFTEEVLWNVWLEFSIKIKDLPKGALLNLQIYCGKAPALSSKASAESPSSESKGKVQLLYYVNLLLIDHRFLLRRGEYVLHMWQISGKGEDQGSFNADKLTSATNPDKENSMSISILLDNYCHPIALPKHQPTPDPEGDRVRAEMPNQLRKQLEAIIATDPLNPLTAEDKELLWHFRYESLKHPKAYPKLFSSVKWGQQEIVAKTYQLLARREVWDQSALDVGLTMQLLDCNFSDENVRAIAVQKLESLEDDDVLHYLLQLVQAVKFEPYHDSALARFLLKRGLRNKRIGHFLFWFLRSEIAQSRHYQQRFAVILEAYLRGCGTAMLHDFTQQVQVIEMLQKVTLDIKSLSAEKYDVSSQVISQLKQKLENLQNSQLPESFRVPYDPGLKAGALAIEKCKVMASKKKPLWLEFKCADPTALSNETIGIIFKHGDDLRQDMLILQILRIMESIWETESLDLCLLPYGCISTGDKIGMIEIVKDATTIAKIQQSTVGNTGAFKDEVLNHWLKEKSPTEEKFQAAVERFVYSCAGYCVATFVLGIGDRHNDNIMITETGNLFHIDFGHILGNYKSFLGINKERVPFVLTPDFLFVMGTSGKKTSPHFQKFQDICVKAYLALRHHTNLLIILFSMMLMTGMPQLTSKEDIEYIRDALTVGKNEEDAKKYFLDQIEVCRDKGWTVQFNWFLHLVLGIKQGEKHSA
T3 sequence (O00329 with tags, fused parts or gaps limits assumed): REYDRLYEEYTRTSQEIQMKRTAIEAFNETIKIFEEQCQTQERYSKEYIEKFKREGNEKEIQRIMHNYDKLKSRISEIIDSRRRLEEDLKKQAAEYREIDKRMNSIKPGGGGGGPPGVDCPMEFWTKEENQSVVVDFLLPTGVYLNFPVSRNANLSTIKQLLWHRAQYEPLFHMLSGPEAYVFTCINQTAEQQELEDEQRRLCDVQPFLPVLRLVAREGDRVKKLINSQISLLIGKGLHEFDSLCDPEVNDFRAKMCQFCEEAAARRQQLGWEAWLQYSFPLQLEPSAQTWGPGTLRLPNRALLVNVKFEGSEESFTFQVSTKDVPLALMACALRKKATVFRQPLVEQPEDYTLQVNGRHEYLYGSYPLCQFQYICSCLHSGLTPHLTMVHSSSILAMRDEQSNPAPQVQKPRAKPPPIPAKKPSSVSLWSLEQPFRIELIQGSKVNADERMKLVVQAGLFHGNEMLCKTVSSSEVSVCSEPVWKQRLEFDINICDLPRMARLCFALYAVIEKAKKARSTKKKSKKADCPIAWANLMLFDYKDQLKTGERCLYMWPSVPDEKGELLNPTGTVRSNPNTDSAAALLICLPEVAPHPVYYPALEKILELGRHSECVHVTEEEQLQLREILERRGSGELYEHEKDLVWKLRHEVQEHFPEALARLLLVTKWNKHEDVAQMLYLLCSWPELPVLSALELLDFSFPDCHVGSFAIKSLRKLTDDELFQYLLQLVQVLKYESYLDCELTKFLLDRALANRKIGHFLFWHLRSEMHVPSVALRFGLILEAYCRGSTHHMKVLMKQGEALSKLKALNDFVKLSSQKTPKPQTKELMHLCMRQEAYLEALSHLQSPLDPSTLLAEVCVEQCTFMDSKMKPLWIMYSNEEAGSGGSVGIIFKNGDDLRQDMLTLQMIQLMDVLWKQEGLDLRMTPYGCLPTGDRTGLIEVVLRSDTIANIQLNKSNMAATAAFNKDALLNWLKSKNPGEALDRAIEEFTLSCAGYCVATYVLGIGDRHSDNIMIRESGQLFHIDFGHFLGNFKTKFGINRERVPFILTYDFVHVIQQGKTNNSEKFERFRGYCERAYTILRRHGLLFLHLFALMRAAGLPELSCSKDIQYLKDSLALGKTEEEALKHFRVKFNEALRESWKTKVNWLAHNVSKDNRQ

For the molecule `Nc1ncc(-c2ccc3ncc(-c4ccc(S(=O)(=O)NCCN5CCOCC5)cc4)n3n2)cc1C(F)(F)F` [Example 124, 4-[6-(6-Amino-5-trifluoro-methyl-pyridin-3-yl)-imidazo [1,2-b]pyridazin-3-yl]-N-(2-morpholin-4-yl-ethyl)-benzene-sulfonamide], the IC50 at PI3K alfa is 18 nM; on PI3K beta it was 157 nM; on PI3K delta, 29 nM; on PI3K gamma it was 529 nM.
The matching figures for `COc1cc(-c2cnc3ccc(-c4cnc(N)c(C(F)(F)F)c4)nn23)ccc1C(=O)NCCCN1CCOCC1` [Example 125, 4-[6-(6-Amino-5-trifluoro-methyl-pyridin-3-yl)-imidazo [1,2-b]pyridazin-3-yl]-2-methoxy-N-(3-morpholin-4-yl-propyl)-benzamide]: 26 nM, 182 nM, 55 nM and 490 nM.
In the case of `Nc1ncc(-c2ccc3ncc(-c4cnc5c(ccn5CCN5CCOCC5)c4)n3n2)cc1C(F)(F)F` [Example 126, 5-{3-[1-(2-Morpholin-4-yl-ethyl)-1H-pyrrolo [2,3-b]pyridin-5-yl]-imidazo [1,2-b]pyridazin-6-yl}-3-trifluoro-methyl-pyridin-2-ylamine], the IC50 amounted to 66 nM on PI3K alfa, 139 nM at PI3K beta, 22 nM at PI3K delta and 1030 nM on PI3K gamma.
Turning to `Nc1ncc(-c2ccc3ncc(-c4ccc(C(=O)N5CCN(Cc6cccnc6)CC5)cc4)n3n2)cc1C(F)(F)F` [Example 127, {4-[6-(6-Amino-5-trifluoro-methyl-pyridin-3-yl)-imidazo [1,2-b]pyridazin-3-yl]-phenyl}-(4-pyridin-3-ylmethyl-piperazin-1-yl)-methanone], the IC50 stood at 19 nM at PI3K alfa, 416 nM at PI3K beta, 59 nM at PI3K delta and 1050 nM at PI3K gamma.
The matching figures for `Nc1ncc(-c2ccc3ncc(-c4ccc(C(=O)N5CCN(CCN6CCOCC6)CC5)cc4)n3n2)cc1C(F)(F)F` [Example 128, {4-[6-(6-Amino-5-trifluoro-methyl-pyridin-3-yl)-imidazo [1,2-b]pyridazin-3-yl]-phenyl}-[4-(2-morpholin-4-yl-ethyl)-piperazin-1-yl]-methanone]: 12 nM, 518 nM, 38 nM and 938 nM.
The matching figures for `Nc1ccc(-c2cnc3ccc(-c4ccc(OCCCNC(=O)C5CC5)cc4)nn23)cn1` [Example 129, Cyclo-propane-carboxylic acid (3-{4-[3-(6-amino-pyridin-3-yl)-imidazo [1,2-b]pyridazin-6-yl]-phenoxy}-propyl)-amide]: 223 nM, 4140 nM, 676 nM and 2020 nM.
With `O=C(NCCCOc1ccc(-c2ccc3ncc(-c4cncc(C(F)(F)F)c4)n3n2)cc1)C1CC1` [Example 130, Cyclo-propane-carboxylic acid (3-{4-[3-(5-trifluoro-methyl-pyridin-3-yl)-imidazo [1,2-b]pyridazin-6-yl]-phenoxy}-propyl)-amide], the IC50 on PI3K alfa is 347 nM; at PI3K beta, more than 9100 nM; on PI3K delta it was 576 nM; on PI3K gamma it was 1300 nM.
The matching figures for `Nc1ncc(-c2ccc3ncc(-c4ccc5c(cnn5CCN5CCOCC5)c4)n3n2)cc1C(F)(F)F` [Example 131, 5-{3-[1-(2-Morpholin-4-yl-ethyl)-1H-indazol-5-yl]-imidazo [1,2-b]pyridazin-6-yl}-3-trifluoro-methyl-pyridin-2-ylamine]: 26 nM, 112 nM, 15 nM and 703 nM.
Turning to `CN(C)CCN1CCN(C(=O)c2ccc(-c3cnc4ccc(-c5cnc(N)c(C(F)(F)F)c5)nn34)cc2)CC1` [Example 132, {4-[6-(6-Amino-5-trifluoro-methyl-pyridin-3-yl)-imidazo [1,2-b]pyridazin-3-yl]-phenyl}-[4-(2-dimethyl-amino-ethyl)-piperazin-1-yl]-methanone], the IC50 on PI3K alfa turned out to be 26 nM; at PI3K beta, 1260 nM; on PI3K delta, 52 nM; on PI3K gamma, 2020 nM.
As to `COc1cc(-c2cnc3ccc(-c4cnc(N)c(C(F)(F)F)c4)nn23)ccc1C(=O)N1CCN(CCc2ccccn2)CC1` [Example 133, {4-[6-(6-Amino-5-trifluoro-methyl-pyridin-3-yl)-imidazo [1,2-b]pyridazin-3-yl]-2-methoxy-phenyl)-[4-(2-pyridin-2-yl-ethyl)-piperazin-1-yl]-methanone], the IC50 on PI3K alfa is 38 nM; at PI3K beta it was 302 nM; on PI3K delta, 33 nM; on PI3K gamma, 1280 nM.
The matching figures for `Nc1ncc(-c2ccc3ncc(-c4ccc(S(=O)(=O)NCCCN5CCOCC5)cc4)n3n2)cc1C(F)(F)F` [Example 134, 4-[6-(6-Amino-5-trifluoro-methyl-pyridin-3-yl)-imidazo [1,2-b]pyridazin-3-yl]-N-(3-morpholin-4-yl-propyl)-benzene-sulfonamide]: 71 nM, 443 nM, 79 nM and more than 9100 nM.
On to `Nc1ncc(-c2ccc3ncc(-c4ccc(C(=O)N5CCN(CCc6ccccn6)CC5)cc4)n3n2)cc1C(F)(F)F` [Example 135], for which the IC50 was 46 nM at PI3K alfa, 587 nM on PI3K beta, 59 nM at PI3K delta and 2010 nM at PI3K gamma.
The matching figures for `Nc1ncc(-c2ccc3ncc(-c4ccc(C(=O)N5CCN(Cc6ccncc6)CC5)cc4)n3n2)cc1C(F)(F)F` [Example 136, {4-[6-(6-Amino-5-trifluoro-methyl-pyridin-3-yl)-imidazo [1,2-b]pyridazin-3-yl]-phenyl}-(4-pyridin-4-ylmethyl-piperazin-1-yl)-methanone]: 36 nM, 1200 nM, 52 nM and 1530 nM.
The matching figures for `O=C(NCCCOc1ccc(-c2ccc3ncc(-c4cnc5[nH]ccc5c4)n3n2)cc1)C1CC1` [Example 137, Cyclo-propane-carboxylic acid (3-{4-[3-(1H-pyrrolo[2,3-b]pyridin-5-yl)-imidazo [1,2-b]pyridazin-6-yl]-phenoxy}-propyl)-amide]: 138 nM, more than 9100 nM, 280 nM and more than 9100 nM.
Turning to `Nc1ncc(-c2ccc3ncc(-c4ccc5c(cnn5CCCN5CCOCC5)c4)n3n2)cc1C(F)(F)F` [Example 140, 5-{3-[1-(3-Morpholin-4-yl-propyl)-1H-indazol-5-yl]-imidazo [1,2-b]pyridazin-6-yl}-3-trifluoro-methyl-pyridin-2-ylamine], the IC50 at PI3K alfa came out at 37 nM; on PI3K beta, 135 nM; at PI3K delta, 27 nM; on PI3K gamma it was 712 nM.
The matching figures for `NCCCOc1ccc(-c2cnc3ccc(-c4cnc(N)c(C(F)(F)F)c4)nn23)cc1` [Example 141, 5-{3-[4-(3-Amino-propoxy)-phenyl]-imidazo [1,2-b]pyridazin-6-yl}-3-trifluoro-methyl-pyridin-2-ylamine]: 151 nM, 134 nM, 201 nM and 7250 nM.
Take `Nc1ncc(-c2ccc3ncc(-c4ccc(OCCCNC(=O)C5CC5)cc4)n3n2)cc1C(F)(F)F` [Example 142, Cyclo-propane-carboxylic acid (3-{4-[6-(6-amino-5-trifluoro-methyl-pyridin-3-yl)-imidazo [1,2-b]pyridazin-3-yl]-phenoxy}-propyl)-amide]: the IC50 on PI3K alfa is 45 nM; on PI3K beta, 3160 nM; on PI3K delta, 319 nM; on PI3K gamma, more than 9100 nM.
The matching figures for `Nc1ncc(-c2ccc3ncc(-c4cnc5c(c4)ncn5CCN4CCOCC4)n3n2)cc1C(F)(F)F` [Example 143, 5-{3-[3-(2-Morpholin-4-yl-ethyl)-3H-imidazo [4,5-b]pyridin-6-yl]-imidazo [1,2-b]pyridazin-6-yl}-3-trifluoro-methyl-pyridin-2-ylamine]: 44 nM, 72 nM, 28 nM and 1180 nM.
The matching figures for `Nc1ncc(-c2ccc3ncc(-c4ccc(C(=O)N5CCN(CC(=O)N6CCOCC6)CC5)cc4)n3n2)cc1C(F)(F)F` [Example 144, 2-(4-{4-[6-(6-Amino-5-trifluoro-methyl-pyridin-3-yl)-imidazo [1,2-b]pyridazin-3-yl]-benzoyl}-piperazin-1-yl)-1-morpholin-4-yl-ethanone]: 175 nM, 533 nM, 266 nM and 5900 nM.
